# Data taken from US4229204A, “Trifluoromethylphenyl isoxazolyl benzoates” (Monsanto Company, priority 1978, dated 1980).
# Experiments:
# Assay type in all cases: in vivo
# [1] = test system: Crabgrass; experiment: Pre-emergent herbicidal test; settings: 4 WAT; further: ranges in brackets are in %
# Description: (§1) The pre-emergent test was conducted as follows:
# (§2) A good grade of top soil was placed in aluminum pans and compacted to a depth of three-eighths to one-half inch from the top of the pan. On the top of the soil was placed a predetermined number of seeds or vegetative propagules of various plant species which were pressed into the soil surface. The soil required to level fill the pans after seeding or adding vegetative propagules was weighed into a pan. A known amount of the active ingredient applied in a solvent or as a wettable powder and the soil were thoroughly mixed, and used as a cover layer for prepared pans.
# (§3) The herbicidal rating was obtained by means of a fixed scale based on the percent injury of each plant species. The ratings are defined as follows: […]
# [2] = test system: Hemp Sesbania; experiment: Pre-emergent herbicidal test; settings: 4 WAT; further: ranges in brackets are in %
# Description: as §1, §2, §3
# [3] = test system: Panicum Spp.; experiment: Pre-emergent herbicidal test; settings: 4 WAT; further: ranges in brackets are in %
# Description: as §1, §2, §3
# [4] = test system: Rice; experiment: Pre-emergent herbicidal test; settings: 4 WAT; further: ranges in brackets are in %
# Description: as §1, §2, §3
# [5] = test system: Sorghum; experiment: Pre-emergent herbicidal test; settings: 4 WAT; further: ranges in brackets are in %
# Description: as §1, §2, §3
# [6] = test system: Soybean; experiment: Pre-emergent herbicidal test; settings: 4 WAT; further: ranges in brackets are in %
# Description: as §1, §2, §3
# [7] = test system: Sugarbeet; experiment: Pre-emergent herbicidal test; settings: 4 WAT; further: ranges in brackets are in %
# Description: as §1, §2, §3
# [8] = test system: Wheat; experiment: Pre-emergent herbicidal test; settings: 4 WAT; further: ranges in brackets are in %
# Description: as §1, §2, §3
# [9] = test system: Wild Buckwheat; experiment: Pre-emergent herbicidal test; settings: 4 WAT; further: ranges in brackets are in %
# Description: as §1, §2, §3
# [10] = test system: Barnyardgrass; experiment: Pre-emergent herbicidal test; settings: 4 WAT; further: ranges in brackets are in %
# Description: as §1, §2, §3
# (§4) The compounds were also tested by utilizing the above procedure on the following plant species: […]
# [11] = test system: Canada Thistle; experiment: Pre-emergent herbicidal test; settings: 4 WAT, 11.2 kg/h; further: ranges in brackets are in %
# Description: as §1, §2, §3, §4
# [12] = test system: Cocklebur; experiment: Pre-emergent herbicidal test; settings: 4 WAT; further: ranges in brackets are in %
# Description: as §1, §2, §3, §4
# [13] = test system: Downy Brome; experiment: Pre-emergent herbicidal test; settings: 4 WAT; further: ranges in brackets are in %
# Description: as §1, §2, §3, §4
# [14] = test system: Johnsongrass; experiment: Pre-emergent herbicidal test; settings: 4 WAT, 11.2 kg/h; further: ranges in brackets are in %
# Description: as §1, §2, §3, §4
# [15] = test system: Lambsquarters; experiment: Pre-emergent herbicidal test; settings: 4 WAT; further: ranges in brackets are in %
# Description: as §1, §2, §3, §4
# [16] = test system: Morningglory; experiment: Pre-emergent herbicidal test; settings: 4 WAT; further: ranges in brackets are in %
# Description: as §1, §2, §3, §4
# [17] = test system: Quackgrass; experiment: Pre-emergent herbicidal test; settings: 4 WAT, 11.2 kg/h; further: ranges in brackets are in %
# Description: as §1, §2, §3, §4
# [18] = test system: Smartweed; experiment: Pre-emergent herbicidal test; settings: 4 WAT; further: ranges in brackets are in %
# Description: as §1, §2, §3, §4
# [19] = test system: Velvetleaf; experiment: Pre-emergent herbicidal test; settings: 4 WAT; further: ranges in brackets are in %
# Description: as §1, §2, §3, §4
# [20] = test system: Yellow Nutsedge; experiment: Pre-emergent herbicidal test; settings: 4 WAT, 11.2 kg/h; further: ranges in brackets are in %
# Description: as §1, §2, §3, §4
# [21] = test system: Crabgrass; experiment: Post-emergent herbicidal test; settings: 4 WAT; further: ranges in brackets are in %
# Description: (§5) The post-emergent tests were conducted as follows:
# (§6) The active ingredients are applied in spray form to two or three week old specimens of various plant species. The spray, a solution or wettable powder suspension containing the appropriate rate of active ingredient to give the desired test rate and a surfactant, is applied to the plants.
# [22] = test system: Hemp Sesbania; experiment: Post-emergent herbicidal test; settings: 4 WAT; further: ranges in brackets are in %
# Description: as §5, §6
# [23] = test system: Panicum Spp.; experiment: Post-emergent herbicidal test; settings: 4 WAT; further: ranges in brackets are in %
# Description: as §5, §6
# [24] = test system: Rice; experiment: Post-emergent herbicidal test; settings: 4 WAT; further: ranges in brackets are in %
# Description: as §5, §6
# [25] = test system: Sorghum; experiment: Post-emergent herbicidal test; settings: 4 WAT; further: ranges in brackets are in %
# Description: as §5, §6
# [26] = test system: Soybean; experiment: Post-emergent herbicidal test; settings: 4 WAT; further: ranges in brackets are in %
# Description: as §5, §6
# [27] = test system: Sugarbeet; experiment: Post-emergent herbicidal test; settings: 4 WAT; further: ranges in brackets are in %
# Description: as §5, §6
# [28] = test system: Wheat; experiment: Post-emergent herbicidal test; settings: 4 WAT; further: ranges in brackets are in %
# Description: as §5, §6
# [29] = test system: Wild Buckwheat; experiment: Post-emergent herbicidal test; settings: 4 WAT; further: ranges in brackets are in %
# Description: as §5, §6
# [30] = test system: Barnyardgrass; experiment: Post-emergent herbicidal test; settings: 4 WAT; further: ranges in brackets are in %
# Description: as §5, §6, §4
# [31] = test system: Canada Thistle; experiment: Post-emergent herbicidal test; settings: 4 WAT, 11.2 kg/h; further: ranges in brackets are in %
# Description: as §5, §6, §4
# [32] = test system: Cocklebur; experiment: Post-emergent herbicidal test; settings: 4 WAT; further: ranges in brackets are in %
# Description: as §5, §6, §4
# [33] = test system: Downy Brome; experiment: Post-emergent herbicidal test; settings: 4 WAT; further: ranges in brackets are in %
# Description: as §5, §6, §4
# [34] = test system: Johnsongrass; experiment: Post-emergent herbicidal test; settings: 4 WAT, 11.2 kg/h; further: ranges in brackets are in %
# Description: as §5, §6, §4
# [35] = test system: Lambsquarters; experiment: Post-emergent herbicidal test; settings: 4 WAT; further: ranges in brackets are in %
# Description: as §5, §6, §4
# [36] = test system: Morningglory; experiment: Post-emergent herbicidal test; settings: 4 WAT; further: ranges in brackets are in %
# Description: as §5, §6, §4
# [37] = test system: Quackgrass; experiment: Post-emergent herbicidal test; settings: 4 WAT, 11.2 kg/h; further: ranges in brackets are in %
# Description: as §5, §6, §4
# [38] = test system: Smartweed; experiment: Post-emergent herbicidal test; settings: 4 WAT; further: ranges in brackets are in %
# Description: as §5, §6, §4
# [39] = test system: Velvetleaf; experiment: Post-emergent herbicidal test; settings: 4 WAT; further: ranges in brackets are in %
# Description: as §5, §6, §4
# [40] = test system: Yellow Nutsedge; experiment: Post-emergent herbicidal test; settings: 4 WAT, 11.2 kg/h; further: ranges in brackets are in %
# Description: as §5, §6, §4
# [41] = test system: corn; experiment: Growth regulation of corn (dipping); settings: 1330 ppm
substance,measurement,setting,value
Ethyl 2-[3-[3-(Trifluoromethyl)Phenyl]-5-Isoxazolyl]Benzoate [Example 4],herbicidal rating,[1]; 1.12 kg/h,1 (25-49)
same,herbicidal rating,[1]; 5.60 kg/h,3 (75-100)
same,herbicidal rating,[2]; 1.12 kg/h,1 (25-49)
same,herbicidal rating,[2]; 5.60 kg/h,2 (50-74)
same,herbicidal rating,[3]; 1.12 kg/h,2 (50-74)
same,herbicidal rating,[3]; 5.60 kg/h,3 (75-100)
same,herbicidal rating,[4]; 1.12 kg/h,3 (75-100)
same,herbicidal rating,[4]; 5.60 kg/h,3 (75-100)
same,herbicidal rating,[5]; 1.12 kg/h,2 (50-74)
same,herbicidal rating,[5]; 5.60 kg/h,3 (75-100)
same,herbicidal rating,[6]; 1.12 kg/h,1 (25-49)
same,herbicidal rating,[6]; 5.60 kg/h,3 (75-100)
same,herbicidal rating,[7]; 1.12 kg/h,1 (25-49)
same,herbicidal rating,[7]; 5.60 kg/h,2 (50-74)
same,herbicidal rating,[8]; 1.12 kg/h,0 (0-24)
same,herbicidal rating,[8]; 5.60 kg/h,1 (25-49)
same,herbicidal rating,[9]; 1.12 kg/h,2 (50-74)
same,herbicidal rating,[9]; 5.60 kg/h,2 (50-74)
same,herbicidal rating,[10]; 1.12 kg/h,3 (75-100)
same,herbicidal rating,[10]; 5.60 kg/h,3 (75-100)
same,herbicidal rating,[10]; 11.2 kg/h,3 (75-100)
same,herbicidal rating,[11],2 (50-74)
same,herbicidal rating,[12]; 1.12 kg/h,0 (0-24)
same,herbicidal rating,[12]; 5.60 kg/h,1 (25-49)
same,herbicidal rating,[12]; 11.2 kg/h,1 (25-49)
same,herbicidal rating,[13]; 1.12 kg/h,1 (25-49)
same,herbicidal rating,[13]; 5.60 kg/h,2 (50-74)
same,herbicidal rating,[13]; 11.2 kg/h,2 (50-74)
same,herbicidal rating,[14],0 (0-24)
same,herbicidal rating,[15]; 1.12 kg/h,3 (75-100)
same,herbicidal rating,[15]; 5.60 kg/h,2 (50-74)
same,herbicidal rating,[15]; 11.2 kg/h,2 (50-74)
same,herbicidal rating,[16]; 1.12 kg/h,2 (50-74)
same,herbicidal rating,[16]; 5.60 kg/h,3 (75-100)
same,herbicidal rating,[16]; 11.2 kg/h,2 (50-74)
same,herbicidal rating,[17],2 (50-74)
same,herbicidal rating,[18]; 1.12 kg/h,3 (75-100)
same,herbicidal rating,[18]; 5.60 kg/h,3 (75-100)
same,herbicidal rating,[18]; 11.2 kg/h,2 (50-74)
same,herbicidal rating,[19]; 1.12 kg/h,0 (0-24)
same,herbicidal rating,[19]; 5.60 kg/h,1 (25-49)
same,herbicidal rating,[19]; 11.2 kg/h,2 (50-74)
same,herbicidal rating,[20],0 (0-24)
same,herbicidal rating,[21]; 1.12 kg/h,1 (25-49)
same,herbicidal rating,[21]; 5.60 kg/h,2 (50-74)
same,herbicidal rating,[22]; 1.12 kg/h,2 (50-74)
same,herbicidal rating,[22]; 5.60 kg/h,2 (50-74)
same,herbicidal rating,[23]; 1.12 kg/h,0 (0-24)
same,herbicidal rating,[23]; 5.60 kg/h,1 (25-49)
same,herbicidal rating,[24]; 1.12 kg/h,1 (25-49)
same,herbicidal rating,[24]; 5.60 kg/h,1 (25-49)
same,herbicidal rating,[25]; 1.12 kg/h,1 (25-49)
same,herbicidal rating,[25]; 5.60 kg/h,2 (50-74)
same,herbicidal rating,[26]; 1.12 kg/h,2 (50-74)
same,herbicidal rating,[26]; 5.60 kg/h,2 (50-74)
same,herbicidal rating,[27]; 1.12 kg/h,1 (25-49)
same,herbicidal rating,[27]; 5.60 kg/h,2 (50-74)
same,herbicidal rating,[28]; 1.12 kg/h,0 (0-24)
same,herbicidal rating,[28]; 5.60 kg/h,1 (25-49)
same,herbicidal rating,[29]; 1.12 kg/h,2 (50-74)
same,herbicidal rating,[29]; 5.60 kg/h,2 (50-74)
same,herbicidal rating,[30]; 1.12 kg/h,2 (50-74)
same,herbicidal rating,[30]; 5.60 kg/h,3 (75-99)
same,herbicidal rating,[30]; 11.2 kg/h,3 (75-99)
same,herbicidal rating,[31],2 (50-74)
same,herbicidal rating,[32]; 1.12 kg/h,2 (50-74)
same,herbicidal rating,[32]; 5.60 kg/h,2 (50-74)
same,herbicidal rating,[32]; 11.2 kg/h,1 (25-49)
same,herbicidal rating,[33]; 1.12 kg/h,0 (0-24)
same,herbicidal rating,[33]; 5.60 kg/h,0 (0-24)
same,herbicidal rating,[33]; 11.2 kg/h,0 (0-24)
same,herbicidal rating,[34],1 (25-49)
same,herbicidal rating,[35]; 1.12 kg/h,1 (25-49)
same,herbicidal rating,[35]; 5.60 kg/h,2 (50-74)
same,herbicidal rating,[35]; 11.2 kg/h,3 (75-99)
same,herbicidal rating,[36]; 1.12 kg/h,2 (50-74)
same,herbicidal rating,[36]; 5.60 kg/h,2 (50-74)
same,herbicidal rating,[36]; 11.2 kg/h,2 (50-74)
same,herbicidal rating,[37],1 (25-49)
same,herbicidal rating,[38]; 1.12 kg/h,2 (50-74)
same,herbicidal rating,[38]; 5.60 kg/h,4 (100)
same,herbicidal rating,[38]; 11.2 kg/h,2 (50-74)
same,herbicidal rating,[39]; 1.12 kg/h,2 (50-74)
same,herbicidal rating,[39]; 5.60 kg/h,1 (25-49)
same,herbicidal rating,[39]; 11.2 kg/h,2 (50-74)
same,herbicidal rating,[40],1 (25-49)
same,Observations,[41],"reduction in stature and ""buggy whipping"" of the leaves"
